From patent publication US20210115397A1, “METHOD FOR PROMOTING DIFFERENTIATION OF PLURIPOTENT STEM CELLS” (TOKYO INSTITUTE OF TECHNOLOGY, priority 2018, published 2021)

Tested on: RPChiPS771 hiPSCs
Experiment: Differentiation of RPChiPS771 into definitive endoderm with or without CHIR99021, SOX17+ cells
Type: cell-based, human
Conditions: protocol B (CHIR99021 added) versus protocol A (without CHIR99021)
Description: Medium 1 (M1): Initiation of differentiation was done by replacing the culture with Medium 1, including DMEM with 4, 500 mg/L glucose supplemented with 3 μM CHIR99021 (Stemgent), 100 ng/mL recombinant human activin-A (Cell Guidance Systems Ltd), and 2% B27 insulin (+) supplement (Life Technologies). On days 1 and 2, the media were replaced with medium 1 without CHIR99021. Cells were fixed in 4% paraformaldehyde (NACALAI TESQUE, INC.) in PBS, permeabilized with 0.1% Triton X-100 (NACALAI TESQUE, INC.), and were then blocked with 20% Blocking One (NACALAI TESQUE, INC., Japan) in PBST (0.1% Tween-20 in PBS). Antibodies were diluted in 20% Blocking One (NACALAI TESQUE, INC., Japan) in PBST (0.1% Tween-20 in PBS). Cells were counterstained with […] (DAPI) (Roche Diagnostics K.K., Switzerland). The following primary antibodies were used: mouse anti-Oct3/4 (Santa Cruz Biotechnology, Inc.), goat anti-Sox17 (R&D Systems, Inc.), goat anti-PDX1 (R&D Systems, Inc.), guinea pig anti-insulin (Dako), rabbit anti-C-peptide (Cell Signaling Technology, Inc.), and mouse anti-Nkx6.1 (Developmental Studies Hybridoma Bank). […] Positive cells versus total cells (DAPI-positive cells) were quantified using ImageXpress Micro cellular imaging system (Molecular Devices, LLC.).

Cc1c[nH]c(-c2cnc(NCCNc3ccc(C#N)cn3)nc2-c2ccc(Cl)cc2Cl)n1 [CHIR99021, 6-[[2-[[4-(2,4-dichlorophenyl)-5-(4-methyl-1H-imidazole-2-yl)-2-pyrimidinyl]amino]ethyl]amino]nicotinonitrile]
proportion of SOX17+ cells: a higher proportion of SOX17+ cells overall
